Experimental data published in article PMC4705222, “Identification of a Catalase-Phenol Oxidase in Betalain Biosynthesis in Red Amaranth (Amaranthus cruentus)” (Frontiers in Plant Science, 2016).
Blank lines part the entries; values can stand above or below the molecule they belong to.

What was measured:
AcCATPO [1] = target: T1, AcCATPO (Amaranthus cruentus, UniProt A0A2Z0PTH5); experiment: catalase activity, H2O2 decrease at […] nm; format: biochemical; conditions: read-out: % inhibition at 1 mM
T1 sequence (A0A2Z0PTH5 1-492): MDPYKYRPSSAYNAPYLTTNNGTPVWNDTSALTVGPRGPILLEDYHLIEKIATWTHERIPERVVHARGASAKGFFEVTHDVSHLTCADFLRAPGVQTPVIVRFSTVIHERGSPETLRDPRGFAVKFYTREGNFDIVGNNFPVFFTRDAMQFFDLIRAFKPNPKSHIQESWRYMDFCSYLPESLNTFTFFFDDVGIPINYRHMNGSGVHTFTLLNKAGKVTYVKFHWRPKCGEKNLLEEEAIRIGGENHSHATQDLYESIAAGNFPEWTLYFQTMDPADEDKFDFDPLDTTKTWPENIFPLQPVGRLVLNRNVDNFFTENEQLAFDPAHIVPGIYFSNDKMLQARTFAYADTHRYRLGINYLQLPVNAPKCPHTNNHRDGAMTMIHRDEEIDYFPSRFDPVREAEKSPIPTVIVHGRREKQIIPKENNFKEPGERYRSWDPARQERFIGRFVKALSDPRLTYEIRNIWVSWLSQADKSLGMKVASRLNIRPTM

AcCATPO [2] = target: T1, AcCATPO; experiment: monophenolase activity toward L-tyrosine, absorbance […] nm; format: biochemical; conditions: L-tyrosine substrate, 0.057 mM L-DOPA cofactor, no added CuSO4
AcCATPO [3] = target: T1, AcCATPO; format: biochemical
AcCATPO [4] = target: T1, AcCATPO; experiment: catalase activity, H2O2 decrease at […] nm; format: biochemical; conditions: not significant, H2O2 substrate (14 mM in standard assay), pH 7.0, 20 °C
AcCATPO [5] = target: T1, AcCATPO; experiment: diphenolase activity toward L-DOPA, absorbance […] nm and in-gel staining; format: biochemical; conditions: 1 mM L-DOPA substrate, pH 8.0, 60 °C, chelator
AcCATPO [6] = target: T1, AcCATPO; experiment: monophenolase activity toward L-tyrosine, absorbance […] nm; format: biochemical; conditions: L-tyrosine substrate, 0.057 mM L-DOPA cofactor, no added CuSO4, chelator
AcCATPO [7] = target: T1, AcCATPO; experiment: as above; format: biochemical; conditions: activation, not inhibition, L-tyrosine substrate, 0.057 mM L-DOPA cofactor, no added CuSO4
AcCATPO [8] = target: T1, AcCATPO; experiment: diphenolase activity toward L-DOPA, absorbance […] nm and in-gel staining; format: biochemical; conditions: activation, not inhibition, 1 mM L-DOPA substrate, pH 8.0, 60 °C
purified protein [9] = substrate: N[C@@H](Cc1ccc(O)c(O)c1)C(=O)O; experiment: purified protein; format: biochemical, Amaranthus cruentus; conditions: diphenolase, pH 8.0, 60 °C
purified protein [10] = substrate: N[C@@H](Cc1ccc(O)cc1)C(=O)O; experiment: purified protein; format: biochemical, Amaranthus cruentus; conditions: monophenolase, 0.057 mM L-DOPA as cofactor, pH 8.0, 60 °C

inhibition at 1000 µM (AcCATPO [1]): ~90%
Molecule: NNC(=O)c1ccncc1 [isoniazid]

% decrease at 1 mM (AcCATPO [2]): ~ 15%
Molecule: O=c1cc(CO)occ1O [kojic acid]

Molecule: NC(=S)Nc1ccccc1 [phenylthiocarbamide]
% inhibition at 1 mM (AcCATPO [3]): all inhibitors except tropolone, had a significantly inhibitory effect on the monophenolase activity

% decrease at 1 mM (AcCATPO [4]): < 25%
Molecule: O=C(O)c1ccccc1O [salicylic acid]

% loss of activity at 1 mM (AcCATPO [5]): ~ 99% | % loss of activity at 1 mM (AcCATPO [6]): ~ 80%
Molecule: CCN(CC)C(=S)S [sodium diethyldithiocarbamate]

Molecule: O=c1cccccc1O [tropolone]
% increase of activity at 1 mM (AcCATPO [7]): ~ 25% | % increase of activity at 1 mM (AcCATPO [8]): ~ 55%

B1: AcCATPO (Amaranthus cruentus) (protein)
chain: T1 sequence (A0A2Z0PTH5 1-492)
notes: native, purified from red-violet leaves by native-PAGE gel slice; homotrimer ca. 170 kDa, subunit ca. 58 kDa; cDNA encodes 492 residues; peptides GPILLEDYHLIEK, APGVQTPVIVR, FSTVIHER, ENNFKEPGER, TFAYADTHR
Km (purified protein [9]): 600 µM | Vmax (purified protein [9]): 0.75 µM/min | kcat (purified protein [9]): 0.36 s⁻¹ | kcat/Km (purified protein [9]): 600 M⁻¹ s⁻¹ | Km (purified protein [10]): 200 µM | Vmax (purified protein [10]): 0.079 µM/min | kcat (purified protein [10]): 0.04 s⁻¹ | kcat/Km (purified protein [10]): 200 M⁻¹ s⁻¹
